We go through 14 compounds from patent US9776990B2, “Isoindolone derivatives” (AbbVie Inc., priority 2012, dated 2017).

One experiment concerns the target BRD4 (BDI_K57-E168) (Homo sapiens (Human), UniProt O60885). Put plainly: TR-FRET bromodomain binding assay, BRD4 first bromodomain. Conditions: His-tagged BD1, 100 nM Alexa647 probe. The procedure:
(§1) A time-resolved fluorescence resonance energy transfer (TR-FRET) assay was used to determine the affinities of compounds of the Examples listed in Table 1 for each bromodomain of BRD4. His-tagged first (BD1: amino acids K57-E168) and second (BD2: amino acids E352-E168) bromodomains of BRD4 were expressed and purified. An Alexa647-labeled BET-inhibitor was used as the fluorescent probe in the assay.
(§2) Compound dilution series were prepared in DMSO via a 3-fold serial dilution from 2.5 mM to 42 nM. Compounds were then diluted 6:100 in assay buffer (20 mM Sodium Phosphate, pH 6.0, 50 mM NaCl, 1 mM EDTA, 0.01% Triton X-100, 1 mM DTT) to yield 3× working solutions. Six microliters (μL) of the working solution was then transferred to white, low-volume assay plates (Costar #3673). A 1.5× assay mixture containing His-tagged bromodomain, Europium-conjugated anti-His antibody (Invitrogen PV5596) and the Alexa-647-conjugated probe molecule was also prepared. Twelve μL of this solution were added to the assay plate to reach a final volume of 18 μL. The final concentration of 1× assay buffer contains 2% DMSO, 50 μM−0.85 nM compound, 8 nM bromodomain, 1 nM antibody and 100 or 30 nM probe (for BDI or BDII, respectively). After a one-hour incubation at room temperature, TR-FRET ratios were determined using an Envision multilabel plate reader (Ex 340, Em 495/520).
(§3) TR-FRET data were normalized to the means of 24 no-compound controls (“high”) and 8 controls containing 1 μM un-labeled probe (“low”). Percent inhibition was plotted as a function of compound concentration and the data were fit with the 4 parameter logistic equation to obtain IC50s Inhibition constants (Ki) were calculated from the IC50s, probe Kd and probe concentration. Typical Z′ values were between 0.65 and 0.75. The minimum significant ratio was determined to evaluate assay reproducibility (Eastwood et al., (2006) J Biomol Screen, 11: 253-261). The MSR was determined to be 2.03 for BDI and 1.93 for BDII, and a moving MSR (last six run MSR overtime) for both BDI and BDII was typically <3.

The next experiment has as its target BRD4 (BDII_E352-M457) (Homo sapiens (Human), UniProt O60885). The experiment is described as follows: TR-FRET bromodomain binding assay, BRD4 second bromodomain. Conditions: His-tagged BD2, 30 nM Alexa647 probe. The procedure:
as §1, §2, §3

Experiment [1] concerns breast cancer cell line MX-1. The experiment is described as follows: MX-1 cell line proliferation assay (3-day, Cell Titer Glo). The format is cell-based, human. The note with it: 72 hours, read-out: Cellular proliferation: EC50. The procedure: The impact of compounds of the Examples on cancer cell proliferation was determined using the breast cancer cell line MX-1 (ATCC) in a 3-day proliferation assay. MX-1 cells were maintained in RPMI supplemented with 10% FBS at 37 C.° and an atmosphere of 5% CO2. For compound testing, MX-1 cells were plated in 96-well black bottom plates at a density of 5000 cells/well in 90 μl of culture media and incubated at 37° overnight to allow cell adhesion and spreading. Compound dilution series were prepared in DMSO via a 3-fold serial dilution from 3 mM to 0.1 μM. The DMSO dilution series were then diluted 1:100 in phosphate buffered saline, and 10 μL of the resulted solution were added to the appropriate wells of the MX-1 cell plate. The final compound concentrations in the wells were 3, 1, 0.3, 0.1, 0.03, 0.01, 0.003, 0.001, 0.0003 and 0.0001 μM.
Luminescence readings from the Cell Titer Glo assay were normalized to the DMSO treated cells and analyzed using the GraphPad Prism software with sigmoidal curve fitting to obtain EC50s. The minimum significant ratio (MSR) was determined to evaluate assay reproducibility (Eastwood et al., (2006) J Biomol Screen, 11: 253-261).
For orientation: Cellular ATP, detected with luciferase, serves as a proxy for viable cell number.

The test system of experiment [2] is LPS induced IL-6 production. The experiment is described as follows: LPS (lipopolysaccharide) induced IL-6 production mouse assay. The format is in vivo. Conditions: mice, 3 mg/kg (PO), one hour before LPS, serum 2 hours after LPS. The procedure: Compounds of the Examples listed in Table 8 were assayed for their ability to inhibit LPS (lipopolysaccharide) induced IL-6 production in mice. Severe combined immunodeficient female mice (8 per group) received an intraperitoneal challenge of lipopolysaccharide (2.5 mg/kg, L2630 E. coli 0111:B4) one hour after oral administration (PO) or intraperitoneal administration (IP) of compounds in a solution of 2% ethanol, 5% Tween-80, 20% PEG-400 and 73% (0.2% hydroxypropylmethylcellulose in water). Mice were euthanized 2 hours after lipopolysaccharide injection, blood was removed by cardiac puncture, and then the serum harvested from the blood samples was frozen at −80° C. On the day of the assay the serum samples were brought to room temperature and then diluted 1:20 in phosphate-buffered saline containing 2% bovine serum albumin. Interleukin-6 measurements were performed using a cytokine assay from Meso Scale Discovery (Gaithersburg, Md.) for mouse serum analysis according to the manufacturer's protocol and read on a SECTOR Imager 6000 (Meso Scale Discovery, Gaithersburg, Md.) instrument. Statistical analysis was performed using Prism software (version 5.0) incorporating Dunnett's one way ANOVA. The IL-6 mean and standard deviation of the group of vehicle treated animals were compared with the IL-6 mean and standard deviation of the group treated with drug. A p value <0.05 means that there is less than a 5% probability that the mean values in the two groups are equal.

Read-outs that look alike come from different tables or passages of the source.

As usually defined, the Ki is a measure of affinity in units of concentration, obtained from inhibition or displacement. Higher therefore signals lower affinity.

`Cc1[nH]c(-c2cc(NS(C)(=O)=O)ccc2Sc2ccccc2)c2c1C(=O)CCC2` [Example 44, N-[3-(3-methyl-4-oxo-4,5,6,7-tetrahydro-2H-isoindol-1-yl)-4-(phenylsulfanyl)phenyl]methanesulfonamide]: the Ki was 67 nM on BRD4 (BDI_K57-E168) and 37 nM at BRD4 (BDII_E352-M457). Also, the EC50 in experiment [1] (Homo sapiens, MX1, MX-1 cells) was determined as 645 nM.
Taken in the same sequence, the figures for `Cc1[nH]c(-c2cc(N)ccc2Oc2ccc(F)cc2F)c2c1C(=O)CCC2` [Example 45, 1-[5-amino-2-(2,4-difluorophenoxy)phenyl]-3-methyl-2,5,6,7-tetrahydro-4H-isoindol-4-one] were 40 nM, 198 nM and 329 nM.
`CCS(=O)(=O)Nc1ccc(Oc2ccc(F)cc2F)c(-c2[nH]c(C)c3c2CCCC3=O)c1` [Example 47, N-[4-(2,4-difluorophenoxy)-3-(3-methyl-4-oxo-4,5,6,7-tetrahydro-2H-isoindol-1-yl)phenyl]ethanesulfonamide]: the Ki at BRD4 (BDI_K57-E168) was determined as 11 nM; on BRD4 (BDII_E352-M457), 19 nM. For the same compound, in experiment [1] (Homo sapiens, MX1, MX-1 cells), the EC50 turned out to be 193 nM. Besides, the “% inhibition of LPS induced IL-6 production” value in experiment [2] is listed as 33.0 at 3 mg/kg (PO) %.
`Cc1[nH]c(-c2cc(NS(=O)(=O)CC(F)(F)F)ccc2Oc2ccc(F)cc2F)c2c1C(=O)CCC2` [Example 48, N-[4-(2,4-difluorophenoxy)-3-(3-methyl-4-oxo-4,5,6,7-tetrahydro-2H-isoindol-1-yl)phenyl]-2,2,2-trifluoromethanesulfonamide]: the Ki at BRD4 (BDI_K57-E168) was 68 nM; at BRD4 (BDII_E352-M457) it was 43 nM. For the same compound, the EC50 in experiment [1] (MX-1 cells) came to 564 nM.
For `Cc1[nH]c(-c2cc(NS(=O)(=O)N(C)C)ccc2Oc2ccc(F)cc2F)c2c1C(=O)CCC2` [Example 49, N′-[4-(2,4-difluorophenoxy)-3-(3-methyl-4-oxo-4,5,6,7-tetrahydro-2H-isoindol-1-yl)phenyl]-N,N-dimethylsulfuric Diamide], the Ki at BRD4 (BDI_K57-E168) is 43 nM; on BRD4 (BDII_E352-M457), 192 nM. The EC50 in experiment [1] (Homo sapiens, MX1, MX-1 cells) was determined as 364 nM.
Take `CC(=O)Nc1ccc(Oc2ccc(F)cc2F)c(-c2[nH]c(C)c3c2CCCC3=O)c1` [Example 50, N-[4-(2,4-difluorophenoxy)-3-(3-methyl-4-oxo-4,5,6,7-tetrahydro-2H-isoindol-1-yl)phenyl]acetamide]: the results for the Ki at BRD4 (BDI_K57-E168) and on BRD4 (BDII_E352-M457) were 71 nM and 551 nM, respectively. The EC50 in experiment [1] (Homo sapiens, MX1, MX-1 cells) amounted to 609 nM.
For `CCS(=O)(=O)Nc1ccc(OC2CCC(F)(F)CC2)c(-c2[nH]c(C)c3c2CCCC3=O)c1` [Example 52, N-{4-[(4,4-difluorocyclohexyl)oxy]-3-(3-methyl-4-oxo-4,5,6,7-tetrahydro-2H-isoindol-1-yl)phenyl}ethanesulfonamide] the same measures were 9 nM, 88 nM and 184 nM.
Take `CCNC(=O)c1ccc(Oc2ccccc2)c(-c2[nH]c(C)c3c2CCCC3=O)c1` [Example 55, N-ethyl-3-(3-methyl-4-oxo-4,5,6,7-tetrahydro-2H-isoindol-1-yl)-4-phenoxybenzamide]: the figures for the Ki on BRD4 (BDI_K57-E168) and on BRD4 (BDII_E352-M457) were 77 nM and 511 nM, respectively. Besides, the EC50 in experiment [1] (Homo sapiens, MX1, MX-1 cells) is 1390 nM.
In the case of `Cc1[nH]c(-c2cc(C(=O)NCC3CCCO3)ccc2Oc2ccccc2)c2c1C(=O)CCC2` (stereo not shown) [Example 56, 3-(3-methyl-4-oxo-4,5,6,7-tetrahydro-2H-isoindol-1-yl)-4-phenoxy-N-(tetrahydrofuran-2-ylmethyl)benzamide], the Ki at BRD4 (BDI_K57-E168) is 68 nM; on BRD4 (BDII_E352-M457), 653 nM. In experiment [1] (Homo sapiens, MX1, MX-1 cells), the EC50 is 734 nM.
Taken in the same sequence, the figures for `Cc1[nH]c(-c2cccc(NS(C)(=O)=O)c2)c2c1C(=O)CC(C)(C)C2` [Example 64, N-[3-(3,6,6-trimethyl-4-oxo-4,5,6,7-tetrahydro-2H-isoindol-1-yl)phenyl]methanesulfonamide] were 576 nM, 409 nM and greater than 3000 nM.
Regarding `Cc1[nH]c(-c2ccccc2Oc2ccccc2)c2c1C(=O)CC(C)C2` (stereo not shown) [Example 65, 3,6-dimethyl-1-(2-phenoxyphenyl)-2,5,6,7-tetrahydro-4H-isoindol-4-one], the Ki stood at 184 nM on BRD4 (BDI_K57-E168) and 382 nM at BRD4 (BDII_E352-M457). Also, the EC50 in experiment [1] (Homo sapiens, MX1, MX-1 cells) was determined as 1780 nM.
For `Cc1[nH]c(-c2cc(NS(C)(=O)=O)ccc2Oc2ccccc2)c2c1C(=O)CC(C)C2` (stereo not shown) [Example 67, N-[3-(3,6-dimethyl-4-oxo-4,5,6,7-tetrahydro-2H-isoindol-1-yl)-4-phenoxyphenyl]methanesulfonamide] the same measures were 12 nM, 68 nM and 110 nM.
For `Cc1[nH]c(-c2cc(NS(C)(=O)=O)ccc2Oc2ccccc2)c2c1C(=O)CC(CC(C)C)C2` (stereo not shown) [Example 69, N-{3-[3-methyl-6-(2-methylpropyl)-4-oxo-4,5,6,7-tetrahydro-2H-isoindol-1-yl]-4-phenoxyphenyl}methanesulfonamide], the Ki on BRD4 (BDI_K57-E168) turned out to be 151 nM; at BRD4 (BDII_E352-M457), 2070 nM. Besides, the EC50 in experiment [1] (Homo sapiens, MX1, MX-1 cells) turned out to be 600 nM.
For `Cc1[nH]c(-c2cc(NS(C)(=O)=O)ccc2Oc2ccccc2)c2c1C(=O)CC(C(C)C)C2` (stereo not shown) [Example 71, N-{3-[3-methyl-4-oxo-6-(propan-2-yl)-4,5,6,7-tetrahydro-2H-isoindol-1-yl]-4-phenoxyphenyl}methanesulfonamide], the Ki at BRD4 (BDI_K57-E168) was 375 nM; on BRD4 (BDII_E352-M457) it was 926 nM. The EC50 in experiment [1] (Homo sapiens, MX1, MX-1 cells) was 950 nM.
